From patent US8822502B2, “Insecticidal compounds” (Syngenta Crop Protection LLC, priority 2008, dated 2014)

Legend:
Type in all cases: in vivo
[1] = tested on: Diabrotica balteata; assay: Diabrotica balteata artificial diet test; conditions: 120 h, application rate 200 ppm (concentration in well 18 ppm), L2 larvae, 5 days, larval mortality, growth regulation
Experimental: Diabrotica Balteata (Corn Root Worm):
(§1) A 24-well microtiter plate (MTP) with artificial diet was treated with test solutions at an application rate of 200 ppm (concentration in well 18 ppm) by pipetting. After drying, the MTP's were infested with L2 larvae (6-10 per well). After an incubation period of 5 days, samples were checked for larval mortality and growth regulation.

[2] = tested on: Plutella xylostella; assay: Plutella xylostella artificial diet test; conditions: 144 h, application rate 200 ppm (concentration in well 18 ppm), L2 larvae, 6 days, larval mortality, growth regulation
Experimental: Plutella Xylostella (Diamond Back Moth):
as §1, with “24-well” for “A 24-well”, “(7-12” for “(6-10”, “6” for “5”

[3] = tested on: Tetranychus urticae; assay: Tetranychus urticae bean leaf disc spray test; conditions: foliar, 192 h, application rate 200 ppm, sprayed bean leaf discs, mite populations of mixed ages, 8 days, egg, larval and adult mortality
Text: Tetranychus Urticae (Two-Spotted Spider Mite):
Bean leaf discs on agar in 24-well microtiter plates were sprayed with test solutions at an application rate of 200 ppm. After drying, the leaf discs are infested with mite populations of mixed ages. 8 days later, discs are checked for egg mortality, larval mortality, and adult mortality.

[4] = tested on: Spodoptera littoralis; assay: Spodoptera littoralis cotton leaf disc spray test; conditions: foliar, 72 h, application rate 200 ppm, sprayed cotton leaf discs, L1 larvae, 3 days after treatment, mortality, feeding behavior, growth regulation
Text: Spodoptera Littoralis (Egyptian Cotton Leafworm):
Cotton leaf discs were placed on agar in a 24-well microtiter plate and sprayed with test solutions at an application rate of 200 ppm. After drying, the leaf discs were infested with 5 L1 larvae. The samples were checked for mortality, feeding behavior, and growth regulation 3 days after treatment (DAT).

[5] = tested on: Heliothis virescens; assay: Heliothis virescens egg / artificial diet test; conditions: 96 h, application rate 200 ppm (concentration in well 18 ppm), eggs 0-24 h old on artificial diet, 4 days, egg mortality, larval mortality, growth regulation
Experimental: Heliothis Virescens (Tobacco Budworm):
Eggs (0-24 h old) were placed in 24-well microtiter plate on artificial diet and treated with test solutions at an application rate of 200 ppm (concentration in well 18 ppm) by pipetting. After an incubation period of 4 days, samples were checked for egg mortality, larval mortality, and growth regulation.

[6] = tested on: Thrips tabaci; assay: Thrips tabaci sunflower leaf disc spray test; conditions: foliar, 168 h, application rate 200 ppm, sprayed sunflower leaf discs, population of mixed ages, 7 days, mortality
Experimental: Thrips Tabaci (Onion Thrips):
Sunflower leaf discs were placed on agar in a 24-well microtiter plate and sprayed with test solutions at an application rate of 200 ppm. […] After an incubation period of 7 days, samples were checked for mortality.

Measured: pest or weed control at 200 ppm

Cc1cc(C2=NOC(c3cc(Cl)cc(Cl)c3)(C(F)(F)F)C2Br)ccc1C(=O)NC1C[S+]([O-])C1 (single isomer, unassigned) [A25, 4-[4-bromo-5-(3,5-dichloro-phenyl)-5-trifluoromethyl-4,5-dihydro-isoxazol-3-yl]-2-methyl-N-(1-oxo-thietan-3-yl)-benzamide]
≥ 80%: [1]

CCCCNC(=O)c1ccc(C2=NOC(c3cc(Cl)cc(Cl)c3)(C(F)(F)F)C2Br)cc1C (centres unmarked) [A1, 4-[4-bromo-5-(3,5-dichloro-phenyl)-5-trifluoromethyl-4,5-dihydro-isoxazol-3-yl]-N-butyl-2-methyl-benzamide]
not listed: [6]
≥ 80%: all other assays above

Cc1cc(C2=NOC(c3cc(Cl)cc(Cl)c3)(C(F)(F)F)C2Br)ccc1C(=O)Nc1cccc(F)c1 (centres unmarked) [A15]
≥ 80%: all assays above

CCCCNC(=O)c1ccc(C2=NOC(c3cc(Cl)cc(Cl)c3)(C(F)(F)F)C2Cl)cc1C (centres unmarked) [B1]
≥ 80%: all assays above

CCNC(=O)c1ccc(C2=NOC(c3cc(Cl)cc(Cl)c3)(C(F)(F)F)C2Cl)cc1C (centres unmarked) [B3]
≥ 80%: all assays above

CCC(C)NC(=O)c1ccc(C2=NOC(c3cc(Cl)cc(Cl)c3)(C(F)(F)F)C2Cl)cc1C (centres unmarked) [B6]
≥ 80%: all assays above

Cc1cc(C2=NOC(c3cc(Cl)cc(Cl)c3)(C(F)(F)F)C2Cl)ccc1C(=O)NCc1ccccc1 (centres unmarked) [B8]
≥ 80%: all assays above

Cc1cc(C2=NOC(c3cc(Cl)cc(Cl)c3)(C(F)(F)F)C2Cl)ccc1C(=O)Nc1cccc(F)c1 (centres unmarked) [B14]
≥ 80%: [2] | [4] | [5]

Cc1cc(C2=NOC(c3cc(Cl)cc(Cl)c3)(C(F)(F)F)C2Cl)ccc1C(=O)NC1CSC1 (centres unmarked) [B21]
≥ 80%: all assays above

Cc1cc(C2=NOC(c3cc(Cl)cc(Cl)c3)(C(F)(F)F)C2Cl)ccc1C(=O)NC1CCC1 (centres unmarked) [B23]
≥ 80%: all assays above

Cc1cc(C2=NOC(c3cc(Cl)cc(Cl)c3)(C(F)(F)F)C2(F)F)ccc1C(=O)NCc1ccccn1 (centres unmarked) [C1, 4-[5-(3,5-dichloro-phenyl)-4,4-difluoro-5-trifluoromethyl-4,5-dihydro-isoxazol-3-yl]-2-methyl-N-pyridin-2-ylmethyl-benzamide]
not listed: [6]
≥ 80%: all other assays above

CCCCNC(=O)c1ccc(C2=NOC(c3cc(Cl)cc(Cl)c3)(C(F)(F)F)C2SC)cc1C (centres unmarked) [D1, N-butyl-4-[5-(3,5-dichloro-phenyl)-4-methylsulfanyl-5-trifluoromethyl-4,5-dihydro-isoxazol-3-yl]-2-methyl-benzamide]
≥ 80%: [2] | [4] | [1] | [5]

CCCCNC(=O)c1ccc(C2=NOC(c3cc(Cl)cc(Cl)c3)(C(F)(F)F)C2S(C)(=O)=O)cc1C (centres unmarked) [D2, N-butyl-4-[5-(3,5-dichloro-phenyl)-4-methylsulfonyl-5-trifluoromethyl-4,5-dihydro-isoxazol-3-yl]-2-methyl-benzamide]
≥ 80%: [2] | [4]

CSC1C(c2ccc(C(=O)NC3CSC3)c(C)c2)=NOC1(c1cc(Cl)cc(Cl)c1)C(F)(F)F (centres unmarked) [D3, 4-[5-(3,5-dichloro-phenyl)-4-methylsulfanyl-5-trifluoromethyl-4,5-dihydro-isoxazol-3-yl]-2-methyl-N-thietan-3-yl-benzamide]
not listed: [6]
≥ 80%: all other assays above

Cc1cc(C2=NOC(c3cc(Cl)cc(Cl)c3)(C(F)(F)F)C2S(C)(=O)=O)ccc1C(=O)NC1CSC1 (centres unmarked) [D4, 4-[5-(3,5-dichloro-phenyl)-4-methylsulfonyl-5-trifluoromethyl-4,5-dihydro-isoxazol-3-yl]-2-methyl-N-thietan-3-yl-benzamide]
≥ 80%: [3] | [5]

CCCCNC(=O)c1ccc(C2=NOC(c3cc(Cl)cc(Cl)c3)(C(F)(F)F)C2C)cc1C (centres unmarked) [E1, N-butyl-4-[5-(3,5-dichloro-phenyl)-4-methyl-5-trifluoromethyl-4,5-dihydro-isoxazol-3-yl]-2-methyl-benzamide]
≥ 80%: all assays above

Cc1cc(C2=NOC(c3cc(Cl)cc(Cl)c3)(C(F)(F)F)C2C)ccc1C(=O)NC1CSC1 (centres unmarked) [E2, 4-[5-(3,5-dichloro-phenyl)-4-methyl-5-trifluoromethyl-4,5-dihydro-isoxazol-3-yl]-2-methyl-N-thietan-3-yl-benzamide]
≥ 80%: all assays above

CCNC(=O)c1ccc(C2=NOC(c3cc(Cl)cc(Cl)c3)(C(F)(F)F)C2Br)c2ccccc12 (centres unmarked) [F2]
≥ 80%: [1]

CCCCNC(=O)c1ccc(C2=NOC(c3cc(Cl)cc(Cl)c3)(C(F)(F)F)C2Br)c2ccccc12 (centres unmarked) [F3]
≥ 80%: [2] | [6] | [4] | [5]

CCC(C)NC(=O)c1ccc(C2=NOC(c3cc(Cl)cc(Cl)c3)(C(F)(F)F)C2Br)c2ccccc12 (centres unmarked) [F6]
not listed: [3]
≥ 80%: all other assays above

O=C(NCc1ccccc1)c1ccc(C2=NOC(c3cc(Cl)cc(Cl)c3)(C(F)(F)F)C2Br)c2ccccc12 (centres unmarked) [F8]
not listed: [3]
≥ 80%: all other assays above

O=C(Nc1cccc(F)c1)c1ccc(C2=NOC(c3cc(Cl)cc(Cl)c3)(C(F)(F)F)C2Br)c2ccccc12 (centres unmarked) [F14]
not listed: [3]
≥ 80%: all other assays above

O=C(NC1CSC1)c1ccc(C2=NOC(c3cc(Cl)cc(Cl)c3)(C(F)(F)F)C2Br)c2ccccc12 (centres unmarked) [F21]
≥ 80%: all assays above
